Experimental data from patent US20120202849A1, “PHARMACEUTICAL COMPOSITIONS FOR THE TREATMENT/PROPHYLAXIS OF NON-ALCOHOLIC FATTY LIVER DISEASE” (priority 2009, published 2012).

Legend:
[1] = system: fructose induced fatty liver; assay: Histopathological examination of NAFLD induced liver tissue; assay type: in vivo, Wistar rats; details: after 14 days; monotherapy or high dose combination: HCQ 160 mg/kg p.o., ATV 8 mg/kg p.o., MET 500 mg/kg
Experimental: In this experiment 66 Wistar rats weighing 150-200 g of either sex were divided randomly into 11 groups consisting of six rats each. Group 1 (normal control) consisted of normal rats that neither received fructose nor any drug, Group 2 served as NAFLD induced control (NAFLD was induced in rats by replacing water with 10% fructose solution for two weeks) which received vehicle orally, Group 3 was NAFLD induced and treated with HCQ (160 mg/kg), Group 4 was NAFLD induced and treated with ATV (8 mg/kg), Group 5 was NAFLD induced and treated with MET (500 mg/kg), Group 6 was NAFLD induced and treated with low dose combination of HCQ (80 mg/kg) and MET (250 mg/kg). Group 7 was NAFLD induced and treated with high dose combination of HCQ (160 mg/kg) and MET (500 mg/kg). Group 8 was NAFLD induced and treated with low dose combination of HCQ (80 mg/kg) and ATV (4 mg/kg). Group 9 was NAFLD induced and treated with high dose combination of HCQ (160 mg/kg) and ATV (8 mg/kg). Group 10 was NAFLD induced and treated with low dose combination of ATV (4 mg/kg), HCQ (80 mg/kg) and MET (250 mg/kg) whereas Group 11 was NAFLD induced and treated with high dose combination of ATV (8 mg/kg), HCQ (160 mg/kg) and MET (500 mg/kg). The study drugs suspended in vehicle [0.1% w/v suspension of Tween 80 and carboxymethylcellulose (CMC) in water] were administered for 14 days. After 14 days treatment, all the animals were sacrificed under chloroform anesthesia and blood was collected for determination of blood glucose levels, triglyceride levels, SGPT, SGOT, alkaline phosphatase and total cholesterol using autoanalyser (Microlab 2000) Liver index was also calculated based upon the body weight and liver weight. At the end of the therapy histopathological evaluations were performed.

[2] = system: fructose induced fatty liver; assay: Fructose induced fatty liver (NAFLD) in rats: biochemical parameters, body and liver weight, liver index after 14 days oral treatment; assay type: in vivo, Wistar rats; details: monotherapy or high dose combination: HCQ 160 mg/kg, ATV 8 mg/kg, MET 500 mg/kg, Mean ± S.D.; for Alk. PO4: alkaline phosphatase; for Glucose: blood; for Liver Index: calculated from body weight and liver weight; for TC (Total Cholesterol) / TG (Triglyceride): serum
Excerpt: The study was based on the experiment on rats with fatty liver induced by fructose feeding and given oral doses of different strengths of the corresponding drug samples for 14 days. It was concluded from the study that the protection given by the combination therapy is more as compared to monotherapy. […] In this experiment 66 Wistar rats weighing 150-200 g of either sex were divided randomly into 11 groups consisting of six rats each. […] Group 7 was NAFLD induced and treated with high dose combination of HCQ (160 mg/kg) and MET (500 mg/kg). Group 8 was NAFLD induced and treated with low dose combination of HCQ (80 mg/kg) and ATV (4 mg/kg). Group 9 was NAFLD induced and treated with high dose combination of HCQ (160 mg/kg) and ATV (8 mg/kg). Group 10 was NAFLD induced and treated with low dose combination of ATV (4 mg/kg), HCQ (80 mg/kg) and MET (250 mg/kg) whereas Group 11 was NAFLD induced and treated with high dose combination of ATV (8 mg/kg), HCQ (160 mg/kg) and MET (500 mg/kg). […] At the end of the therapy histopathological evaluations were performed.

[3] = patients on combined insulin and hydroxychloroquine therapy; average; cited from earlier work
[4] = patients treated with hydroxychloroquine; cited from earlier work

SMILES	Histopathological examination of liver [1]	Alk. PO4 [2] [U/L]	Glucose [2] [mg/dL]	Liver Index [2]	Liver Weight [2] [g]	SGOT [2] [U/L]	SGPT [2] [U/L]	TC (Total Cholesterol) [2] [mg/dL]	TG (Triglyceride) [2] [mg/dL]	Reduction of daily insulin dose [3] [%]	Decrease in serum levels of cholesterol [4]
CN(C)C(=N)N=C(N)N [MET, Metformin]	Liver cells showed regeneration and repair in the form of nucleolation and absence of coarse fat vacuoles	61 ± 6.32	125.16 ± 6.24	4.50 ± 0.30	7.63 ± 0.30	132.33 ± 8.98	43.66 ± 7.33	155.66 ± 10.85	516.33 ± 56.25	–	–
CCN(CCO)CCCC(C)Nc1ccnc2cc(Cl)ccc12 (stereo not shown) [HCQ, Hydroxychloroquine]	did not show any recovery from fatty change	63.16 ± 4.07	157.16 ± 7.93	4.53 ± 0.10	7.64 ± 0.33	137.83 ± 10.59	44.83 ± 2.78	159.66 ± 10.23	556.66 ± 12.21	30	approximately 10%
CC(C)c1c(C(=O)Nc2ccccc2)c(-c2ccccc2)c(-c2ccc(F)cc2)n1CC[C@@H](O)C[C@@H](O)CC(=O)O [ATV, Atorvastatin]	the degree of hepatic injury including steatosis and fatty infiltration were attenuated	54.66 ± 2.58	159.33 ± 9.07	3.20 ± 0.24	–	114.00 ± 3.50	37.5 ± 2.42	137.66 ± 5.20	463.33 ± 12.12	–	–
